Measured values: patent US4127687A, “Prevention of fouling of marine structures such as boat hulls” (Rohm and Haas Company, priority 1976, dated 1978)
Values after ≈ are worked out from the molar mass of the structure shown. Read-outs that look alike come from different tables or passages of the source.

How the values were obtained:
[1] = Water solubility by UV spectrophotometric method; assay type: physicochemical; conditions: water
Outline: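 Molar absorptivity determined from UV absorbance of a known-concentration aqueous solution at λmax (10 cm cell). Saturated solution prepared by stirring excess compound in deionized water ~72 hrs, filtered, diluted to mid-scale absorbance; solubility calculated from absorbance using that absorptivity.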

[2] = test system: barnacle; test: Membrane Diffusion Raft Trials, barnacle control; assay type: in vivo, barnacles; design: key: 0 = none, + = some, ++ = effective barnacle control; conditions: membrane test, average 15 to 16 weeks of immersion
Outline: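 Test compound held in a plastic container sealed by a porous membrane, diffusing into surrounding seawater on raft panels alongside standard poisons and a non-toxic control membrane. Settlement timed and quantified by regular inspection; scored 0 (none), + (some) or ++ (effective), averaging 15 to 16 weeks' immersion.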

[3] = test system: Enteromorpha spores; test: Laboratory toxicity test (Lab Bioassay) with Enteromorpha spores; assay type: in vivo; conditions: using Enteromorpha spores
Outline: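 Enteromorpha spores (zoospores or gametes) exposed to test compounds in laboratory toxicity tests. LD50 values expressed as percentage saturated solution.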

[4] = Amount of toxicant remaining in the test container after membrane diffusion raft tests; assay type: physicochemical; design: key: 0: empty or trace; +: some; + +: ample; conditions: after completion of membrane diffusion raft tests
Outline: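 Known amount of compound held in a cylindrical container sealed with a membrane of known porosity, fixed to a raft panel so toxicant diffuses into the surrounding water. Each panel carries 35 test compounds, 4 standard poisons and 1 non-toxic membrane control. After the trial, container contents inspected visually for remaining toxicant (0 = empty or trace).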

[5] = test system: weed; test: Paint panel / plaque tests against weed (Table 2); assay type: in vivo, grass-like algal growth common in sea water; design: key: high performance; medium performance; low performance; poor or unacceptable performance; conditions: April to November, 1975
Text: (3) PAINT FORMULATION AND TEST PANEL OR PLAQUE TESTS
In order to evaluate the compound under practical conditions, weighed quantities of promising compounds are ground in standard volumes of a selected range of paint media and brushed out on plaques for marine immersion.
The anti-fouling paint formulations used is exemplified by the following: […]
The most preferred specific compounds were utilized in paints including vinyl chloride-vinyl acetate copolymers, chlorinated rubber, acrylic emulsions, and conventional paints with or without rosin to contain 20% by weight of biocide in the wet film and in some cases (Example 144 and Example 145) with concentrations of 5, 10, and 15% based on the wet film. Each of the compounds is also described in the membrane tests noted above. The paints were applied at normal thicknesses to plaques or panels of 10 centimeters by 10 centimeters which were immersed in various positions as described for the raft noted above. The compounds and results, as against weed, in the season April to November, 1975, are as follows: […]

[6] = test system: weed; test: Membrane Diffusion Raft Trials, weed control; assay type: in vivo, grass-like algal growth common in sea water; design: key: 0 = none, + = some, ++ = effective; conditions: membrane test, average 15 to 16 weeks of immersion
Outline: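 Field raft test in sea water: known quantity of compound in container sealed with membrane of known porosity, diffusing into surrounding water; panels at waterline (illuminated, aerated) and flats (poorly lit, deeper). Fouling settlement inspected over about 15-16 weeks average immersion; scored 0 none, + some, ++ effective.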

[7] = test system: Hydroids; test: Membrane test, hydroids (Table 1 footnote d); assay type: in vivo; design: key: Effective against Hydroids
Text: 1). FIELD TESTS: - Membrane Diffusion Raft Trials
A known quantity of the test compound is placed into a cylindrical plastic container whose open end is then covered with a membrane of known porosity; the complete unit is attached to the appropriate raft panel so that the poison can freely diffuse into the free water layer around it. Regular inspections, recording time and quantity of settlement, allow a life history of each membrane trial to be constructed. Each raft panel contains 35 compounds to be evaluated together with 4 standard poisons and 1 non-toxic membrane for control.
The behavior on the raft can thus be compared with that of the standard poisons and the non-toxic control. At normal loading a membrane over the standard poisons would be free from macro-fouling after six months immersion. Compounds showing selective effects against restricted groups of fouling organisms also show up by membrane testing.
^d Effective against Hydroids.

[8] = test system: sea water marine organisms; test: Effectiveness as sea water marine anti-foulant; assay type: in vivo; conditions: result in words
Text: The results in anti-fouling paints when utilizing the 3-isothiazolones of the patents noted above, are not predictable from their effectiveness as general biocides, whether against fresh water algae, bacteria, fungi, insects, etc.
Of the compounds appearing hereinafter in the examples, a number are common to Table 1 appearing in columns 9-12 of the U.S. Pat. No. 3,573,488 patent. Among the compounds common to the latter patent and the present specification are the compounds identified in the patent as example numbers 3, 5-8, 13, 23, 24, 33, 36, 37, the n-octyl isomer of examples 38, 40, 75, 76, 79, 84, and 93-96.
In example B of the U.S. Pat. No. 3,573,448 patent (appearing in columns 22-24) involving the control of algae, bacteria, fungi, and slime in fresh water cooling towers, not one of the compounds, or in some cases its homologue or analog, was effective as a salt water marine anti-foulant. […]
In the following examples, two systems of testing the compounds and evaluating the same are utilized. One involves the utilization of a confined amount of the materials to be evaluated in a cylindrical container having an open end covered by a membrane permeable to a limited extent by the sea water and by the compound in the container. The other method involves making up an anti-fouling paint and testing the same. In a four month period, meaningful results are obtained, and for a full scale test, a six month period, bracketing the summer months, is preferred. The evaluations involving (1) field tests, (2) laboratory tests, and (3) paint panel tests, are as follows: […]

[9] = saturated solution, Table 1, read-out: Solubility by UV method

Compound	solubility [1, 9] [µg/mL]	Barnacle Control [2]	Contents at the end of test (amount of toxicants remaining in the test container) [4]	Weed Control [6]	effectiveness as anti-foulant in sea water marine environments [8]	also measured
CCCCCCCCn1sc(Cl)c(Cl)c1=O [Example 57]	2.3 (≈ 8.15 µM)	+ +	+ +	+ +		Lab Bioassay LD50 [3]: 0.001 percentage saturated solution; Effectiveness in paint CONV (conventional anti-fouling formulation) [5]: m; Effectiveness in paint CR (chlorinated rubber) [5]: h; Effectiveness in paint EM (acrylic emulsion) [5]: h; Effectiveness in paint V (polyvinyl chloride-acetate) [5]: h; Effectiveness in paint V/R (vinyl/rosin) [5]: h; Effective against Hydroids (footnote mark d) [7]: d
O=c1cc(Cl)sn1Cc1ccccc1 [5-chloro-2-benzyl-3-isothiazolone]					effective in both environments	
CCCCCCn1sc(Cl)c(Cl)c1=O [Example 56]	115 (≈ 452 µM)	+ +	0	+ +	control or inhibit the growth of one or more sea water marine organisms	
CCCCCCCCn1sc(Cl)cc1=O [Example 16]	66 (≈ 266 µM)	+ +	0	+ +		Effective against Hydroids (footnote mark d) [7]: d
CCCCCCCCn1sc(Cl)c(Br)c1=O [Example 88]	2.6 (≈ 7.96 µM)	+ +	+	+ +		Effective against Hydroids (footnote mark d) [7]: d
CCCCCCn1sccc1=O [Example 2, 2-n-hexyl-3-isothiazolone]	5100 (≈ 27500 µM)	0	0	0	not active for controlling sea water marine organisms	effectiveness as anti-foulant in sea water marine environments ([8]; listed as hexyl homologue of 2-n-butyl-3-isothiazolone): ineffective as anti-foulants
CCCCCCCCCCn1sc(Cl)cc1=O [Example 22]	7.2 (≈ 26.1 µM)	+ +	0	+ +		Effective against Hydroids (footnote mark d) [7]: d
CCCCn1sccc1=O [Example 1, 2-n-butyl-3-isothiazolone]		0	0	0	ineffective as anti-foulants	
Cn1sc(Cl)cc1=O [5-chloro-2-methyl-3-isothiazolone, reference compound]					ineffective as anti-foulants	
O=c1c(Cl)c(Cl)sn1-c1ccc(Cl)cc1 [Example 145, 4,5-dichloro-2(4'-chlorophenyl)-3-isothiazolone]					effective in anti-fouling environments	Effectiveness in paint CONV (conventional anti-fouling formulation) [5]: h; Effectiveness in paint CR (chlorinated rubber) [5]: h; Effectiveness in paint EM (acrylic emulsion) [5]: h; Effectiveness in paint V (polyvinyl chloride-acetate) [5]: h; Effectiveness in paint V/R (vinyl/rosin) [5]: h
CCCCCCCCn1sccc1=O [Example 3, 2-n-octyl-3-isothiazolone]		0	0	0	not active for controlling sea water marine organisms	effectiveness as anti-foulant in sea water marine environments ([8]; listed as octyl homologue of 2-n-butyl-3-isothiazolone): ineffective as anti-foulants; effectiveness as anti-foulant in sea water marine environments ([8]; listed as octyl homologue of 2-n-decyl-3-isothiazolone): not active for controlling sea water marine organisms; solubility [1]: 481 µg/mL (≈ 2250 µM)
Cn1scc(Cl)c1=O [4-chloro-2-methyl-3-isothiazolone, reference compound]					not active for controlling sea water marine organisms	
CCCCCCCCCCCCn1sccc1=O [Example 5]		0	+	0	not active for controlling sea water marine organisms	
CCCCn1sc(Cl)c(Cl)c1=O [Example 55]	1000 (≈ 4420 µM)	+	+	+ +	control or inhibit the growth of one or more sea water marine organisms	
O=c1ccsn1Cc1ccccc1 [2-benzyl-3-isothiazolone, reference compound]					not active for controlling sea water marine organisms	effectiveness as anti-foulant in sea water marine environments ([8]; listed as benzyl analogue of 2-n-butyl-3-isothiazolone): ineffective as anti-foulants
CC(C)(C)CC(C)(C)n1sccc1=O [Example 4, 2-t-octyl-3-isothiazolone]	410 (≈ 1920 µM)	0	0	0	not active for controlling sea water marine organisms	
CCCCCCCCCCn1sccc1=O [2-n-decyl-3-isothiazolone, reference compound]					ineffective as anti-foulants	
